Several values for one entry are separate records, joined by “and”; a condition that tells them apart may be missing. Equal values may be shown once. Inconclusive results and toxic doses are left out. Rule for the calls: active = survival T/C of 150% or more; inactive = T/C below 125% in these data.
Test system: P388 leukemia ip, CD2F1 mice, survival T/C
Assay: NCI In Vivo Anticancer Drug Screen. Data for tumor model P388 Leukemia (intraperitoneal) in CD2F1 (CDF1) mice
Conditions: endpoint: median survival time, higher = longer survival
In short: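 Mice carrying the transplanted tumor received test compound or vehicle. Survival was recorded in each group, and the value is the treated-group measurement divided by that of the vehicle-treated control group.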

[1] = dose: 50.0 mg/kg/injection, schedule: Q01DX005 (ip), vehicle: Klucel (hydroxypropylcellulose) (HPC)
[2] = dose: 100.0 mg/kg/injection, schedule: Q01DX005 (ip), vehicle: Klucel (hydroxypropylcellulose) (HPC)
[3] = dose: 100.0 mg/kg/injection, schedule: Q01DX005 (ip), vehicle: saline with Tween-80
[4] = dose: 200.0 mg/kg/injection, schedule: Q01DX005 (ip), vehicle: saline with Tween-80
[5] = dose: 60.0 mg/kg/injection, schedule: Q01DX005 (ip), vehicle: saline with Tween-80
[6] = dose: 120.0 mg/kg/injection, schedule: Q01DX005 (ip), vehicle: saline with Tween-80
[7] = dose: 240.0 mg/kg/injection, schedule: Q01DX005 (ip), vehicle: saline with Tween-80

Measured: T/C

N#Cc1cc([N+](=O)[O-])c(Cl)c([N+](=O)[O-])c1Cl
inactive: dose: 3.13 mg/kg/injection, schedule: Q04DX003 (ip), vehicle: saline with Tween-80 100 % of control | dose: 6.25 mg/kg/injection, schedule: Q04DX003 (ip), vehicle: saline with Tween-80 100 % of control | dose: 12.5 mg/kg/injection, schedule: Q04DX003 (ip), vehicle: saline with Tween-80 100 % of control

Fc1ccc(N2C(c3ccccc3)=N[C@@H](N3CCCCC3)[C@@H]2N2CCCCC2)cc1
inactive: [1] 102 % of control | [2] 99 % of control | dose: 200.0 mg/kg/injection, schedule: Q01DX005 (ip), vehicle: Klucel (hydroxypropylcellulose) (HPC) 100 % of control

CC1=C(C(=O)OCc2ccccc2)C(c2cccnc2)C(C(=O)OCc2ccccc2)=C(C)N1
inactive: dose: 25.0 mg/kg/injection, schedule: Q01DX009 (ip), vehicle: distilled water + Tween-80 91 % of control | dose: 50.0 mg/kg/injection, schedule: Q01DX009 (ip), vehicle: distilled water + Tween-80 100 % of control | dose: 100.0 mg/kg/injection, schedule: Q01DX009 (ip), vehicle: distilled water + Tween-80 100 % of control | dose: 200.0 mg/kg/injection, schedule: Q01DX009 (ip), vehicle: distilled water + Tween-80 98 % of control | dose: 400.0 mg/kg/injection, schedule: Q01DX009 (ip), vehicle: distilled water + Tween-80 105 % of control

CN(C)CCn1nc2n(c(=O)c1=O)CC(=O)N(C)c1ccc(Cl)cc1-2
inactive: dose: 100.0 mg/kg/injection, schedule: Q01DX001 (ip), vehicle: Klucel (hydroxypropylcellulose) (HPC) 100 % of control | dose: 200.0 mg/kg/injection, schedule: Q01DX001 (ip), vehicle: Klucel (hydroxypropylcellulose) (HPC) 101 % of control | dose: 400.0 mg/kg/injection, schedule: Q01DX001 (ip), vehicle: Klucel (hydroxypropylcellulose) (HPC) 96 % of control

COC1=C(C)C(=O)C2=C(C1=O)C1C3CC4=C(C(=O)C(OC)=C(C)C4=O)C(CNC(=O)C(C)=O)N3C(C#N)C(C2)N1C (stereo not given)
active: dose: 0.62 mg/kg/injection, schedule: Q01DX009 (ip), vehicle: Klucel (hydroxypropylcellulose) (HPC) 160 % of control | dose: 1.0 mg/kg/injection, schedule: Q01DX009 (ip), vehicle: saline 156 % of control
inactive: dose: 0.06 mg/kg/injection, schedule: Q01DX009 (ip), vehicle: Klucel (hydroxypropylcellulose) (HPC) 122 % of control | dose: 0.31 mg/kg/injection, schedule: Q01DX009 (sc), vehicle: Klucel (hydroxypropylcellulose) (HPC) 107 % of control | dose: 0.62 mg/kg/injection, schedule: Q01DX009 (sc), vehicle: Klucel (hydroxypropylcellulose) (HPC) 115 % of control | dose: 1.25 mg/kg/injection, schedule: Q01DX009 (ip), vehicle: Klucel (hydroxypropylcellulose) (HPC) 107 % of control | dose: 1.25 mg/kg/injection, schedule: Q01DX009 (sc), vehicle: Klucel (hydroxypropylcellulose) (HPC) 118 % of control | dose: 2.0 mg/kg/injection, schedule: Q01DX009 (ip), vehicle: saline 87 % of control

NC(Cc1cccc(NP(=S)(N2CC2)N2CC2)c1)C(=O)O (stereo not given)
inactive: dose: 12.5 mg/kg/injection, schedule: Q04DX003 (ip), vehicle: saline 109 % of control | dose: 25.0 mg/kg/injection, schedule: Q04DX003 (ip), vehicle: saline 118 % of control | dose: 50.0 mg/kg/injection, schedule: Q04DX003 (ip), vehicle: saline with Tween-80 103 % of control | dose: 75.0 mg/kg/injection, schedule: Q04DX003 (ip), vehicle: saline with Tween-80 92 % of control
active: dose: 50.0 mg/kg/injection, schedule: Q01DX009 (ip), vehicle: saline 159 % of control | dose: 100.0 mg/kg/injection, schedule: Q01DX009 (ip), vehicle: saline 181 % of control | dose: 100.0 mg/kg/injection, schedule: Q04DX003 (ip), vehicle: saline 183 % of control | dose: 200.0 mg/kg/injection, schedule: Q01DX009 (ip), vehicle: saline 209 % of control | dose: 200.0 mg/kg/injection, schedule: Q04DX003 (ip), vehicle: saline 225 % of control | dose: 264.0 mg/kg/injection, schedule: Q04DX003 (ip), vehicle: saline 195 % of control | dose: 400.0 mg/kg/injection, schedule: Q04DX003 (ip), vehicle: saline 245 % of control and 250 % of control

S=C(NCCc1ccccc1)N/N=C/c1ccc(Cl)cc1
inactive: [1] 104 % of control | [2] 100 % of control

Cc1ccc(C2SCC(=O)N2c2nncs2)s1 (stereo not given)
inactive: dose: 50.0 mg/kg/injection, schedule: Q01DX005 (ip), vehicle: saline with Tween-80 100 % of control | [3] 92 % of control | [4] 94 % of control

CCOC(=O)c1c(C)c(C(C)=O)c2ccccn12
inactive: [5] 104 % of control | [6] 119 % of control | [7] 105 % of control

Cc1ccc(SSCCN)cc1
inactive: dose: 12.5 mg/kg/injection, schedule: Q01DX005 (ip), vehicle: saline 104 % of control | dose: 25.0 mg/kg/injection, schedule: Q01DX005 (ip), vehicle: saline 104 % of control | dose: 50.0 mg/kg/injection, schedule: Q01DX005 (ip), vehicle: saline 108 % of control and 110 % of control

O=C1Cn2c(c3c(nc2=O)CCCC3)N1
inactive: [5] 100 % of control | [6] 99 % of control | [7] 100 % of control

Nc1nc(-c2cc(-c3ccco3)nc(N)n2)cc(-c2ccco2)n1
inactive: dose: 60.0 mg/kg/injection, schedule: Q01DX005 (ip), vehicle: saline 103 % of control | dose: 120.0 mg/kg/injection, schedule: Q01DX005 (ip), vehicle: saline 103 % of control | dose: 240.0 mg/kg/injection, schedule: Q01DX005 (ip), vehicle: saline 101 % of control

CN(C)N1C(=O)C(C(=O)Nc2cccc3ccccc23)SC1=S (stereo not given)
inactive: dose: 0.75 mg/kg/injection, schedule: Q01DX005 (ip), vehicle: saline with Tween-80 96 % of control | dose: 1.5 mg/kg/injection, schedule: Q01DX005 (ip), vehicle: saline with Tween-80 88 % of control | dose: 3.0 mg/kg/injection, schedule: Q01DX005 (ip), vehicle: saline with Tween-80 91 % of control | [3] 99 % of control | [4] 103 % of control

COc1ccccc1OCC1CCC(=O)O1 (stereo not given)
inactive: dose: 100.0 mg/kg/injection, schedule: Q04DX002 (ip), vehicle: Klucel (hydroxypropylcellulose) (HPC) 95 % of control | dose: 200.0 mg/kg/injection, schedule: Q04DX002 (ip), vehicle: Klucel (hydroxypropylcellulose) (HPC) 103 % of control | dose: 400.0 mg/kg/injection, schedule: Q04DX002 (ip), vehicle: Klucel (hydroxypropylcellulose) (HPC) 101 % of control

O=C1CCCc2ccc([N+](=O)[O-])cc21
inactive: dose: 25.0 mg/kg/injection, schedule: Q01DX009 (ip), vehicle: suspension in saline 98 % of control | dose: 50.0 mg/kg/injection, schedule: Q01DX009 (ip), vehicle: suspension in saline 98 % of control | dose: 100.0 mg/kg/injection, schedule: Q01DX009 (ip), vehicle: suspension in saline 93 % of control | dose: 200.0 mg/kg/injection, schedule: Q01DX009 (ip), vehicle: suspension in saline 93 % of control

Cc1cc(O)c2c(c1O)C(=O)c1cccc(O)c1C2=O
inactive: dose: 0.75 mg/kg/injection, schedule: Q01DX009 (ip), vehicle: Klucel (hydroxypropylcellulose) (HPC) 108 % of control | dose: 1.5 mg/kg/injection, schedule: Q01DX009 (ip), vehicle: Klucel (hydroxypropylcellulose) (HPC) 115 % of control | dose: 3.0 mg/kg/injection, schedule: Q01DX005 (ip), vehicle: Klucel (hydroxypropylcellulose) (HPC) 99 % of control | dose: 3.0 mg/kg/injection, schedule: Q01DX009 (ip), vehicle: Klucel (hydroxypropylcellulose) (HPC) 90 % of control | dose: 6.0 mg/kg/injection, schedule: Q01DX005 (ip), vehicle: Klucel (hydroxypropylcellulose) (HPC) 106 % of control | dose: 6.0 mg/kg/injection, schedule: Q01DX009 (ip), vehicle: Klucel (hydroxypropylcellulose) (HPC) 114 % of control | dose: 12.0 mg/kg/injection, schedule: Q01DX005 (ip), vehicle: Klucel (hydroxypropylcellulose) (HPC) 101 % of control | dose: 12.0 mg/kg/injection, schedule: Q01DX009 (ip), vehicle: Klucel (hydroxypropylcellulose) (HPC) 98 % of control | dose: 12.5 mg/kg/injection, schedule: Q01DX005 (ip), vehicle: Klucel (hydroxypropylcellulose) (HPC) 101 % of control | dose: 24.0 mg/kg/injection, schedule: Q01DX005 (ip), vehicle: Klucel (hydroxypropylcellulose) (HPC) 95 % of control | dose: 25.0 mg/kg/injection, schedule: Q01DX005 (ip), vehicle: Klucel (hydroxypropylcellulose) (HPC) 97 % of control | [1] 90 % of control | dose: 100.0 mg/kg/injection, schedule: Q01DX001 (ip), vehicle: saline 109 % of control | dose: 200.0 mg/kg/injection, schedule: Q01DX001 (ip), vehicle: saline 108 % of control | dose: 400.0 mg/kg/injection, schedule: Q01DX001 (ip), vehicle: saline 100 % of control

N=C(N)n1ncc2c1CCC/C2=N/N=C(N)N
inactive: [5] 99 % of control | [6] 96 % of control | [7] 103 % of control
